Like-named read-outs stand apart in the source and are kept apart here. Square brackets hold non-standard residues; d marks the D form. Peptide text beside a SMILES is read from it. * marks the point of attachment. NHPhenethyl = c1ccc(CCN*)cc1; Cbz = O=C(OCc1ccccc1)*; NHBn = c1ccc(CN*)cc1; Bz = O=C(c1ccccc1)*; NHPh = c1ccc(N*)cc1
Experiments:
[1] = tested on: KMS11 multiple myeloma cells; experiment: [3H]thymidine incorporation assay in KMS11; assay type: cell-based, human
Procedure: Cultures of multiple myeloma cells and treatments with Z-DTPs were carried out as described in Example 8 (see below). The effects of Z-DTPs on the survival/proliferation of multiple myeloma cells were evaluated by the use of [^3H]thymidine) incorporation assays, performed as also described in Example 8. The amount of cell proliferation measured with each of the Z-DTPs' concentrations used and with the untreated cultures (i.e. cultures incubated with medium alone), was expressed as counts per minute (c.p.m.)—which directly correlate with the extent of cell proliferation. All experiments were performed in triplicate.
In these latter assays, the effects of Z-DTPs, Ac-DTPs and Z-LTPs on the survival/proliferation of tumour cell lines was investigated by measuring DNA synthesis using standard tritiated thymidine ([^3H]thymidine; [^3H]-TdR) uptake assays. In the analyses shown, cells were incubated for 24, 72, 120 or 144 hrs at 37° C. in the presence or absence of control or bioactive tetrapeptides, as indicated, then subjected to an additional incubation for 18 hrs with [^3H]-TdR (0.037 MBq/well, equivalent to […]). Cells were subsequently harvested onto glass fibre filter mats using a 96-well plate automated cell harvester, after which scintillation fluid was added, and [^3H]thymidine incorporation measured by liquid scintillation spectroscopy on a beta counter. The results are expressed as the percentages of the counts per minute (c.p.m.) (directly correlating with the extent of cell proliferation) measured with tetrapeptide-treated cultures relative to the c.p.m. measured with the corresponding cultures incubated with medium alone (untreated cells). All experiments were performed in triplicate.

[2] = tested on: KMS12 multiple myeloma cells; experiment: [3H]thymidine incorporation assay in KMS12; assay type: cell-based, human
Procedure: In these latter assays, the effects of Z-DTPs, Ac-DTPs and Z-LTPs on the survival/proliferation of tumour cell lines was investigated by measuring DNA synthesis using standard tritiated thymidine ([^3H]thymidine; [^3H]-TdR) uptake assays. In the analyses shown, cells were incubated for 24, 72, 120 or 144 hrs at 37° C. in the presence or absence of control or bioactive tetrapeptides, as indicated, then subjected to an additional incubation for 18 hrs with [^3H]-TdR (0.037 MBq/well, equivalent to 0.5 μCi/well). Cells were subsequently harvested onto glass fibre filter mats using a 96-well plate automated cell harvester, after which scintillation fluid was added, and [^3H]thymidine incorporation measured by liquid scintillation spectroscopy on a beta counter. The results are expressed as the percentages of the counts per minute (c.p.m.) (directly correlating with the extent of cell proliferation) measured with tetrapeptide-treated cultures relative to the c.p.m. measured with the corresponding cultures incubated with medium alone (untreated cells). All experiments were performed in triplicate.

[3] = molecular target: T1, Gadd45β/MKK7 interaction (Homo sapiens, UniProt O14733); experiment: ELISA competition assay of biotin-hGadd45β binding to coated GST-MKK7; settings: Table V, read-out: IC50 ELISA
T1 construct: The GST-fused full-length kinase was coated for 16 h at 4° C., at a concentration of 42 nM; made in house
T1 sequence (O14733 1-419): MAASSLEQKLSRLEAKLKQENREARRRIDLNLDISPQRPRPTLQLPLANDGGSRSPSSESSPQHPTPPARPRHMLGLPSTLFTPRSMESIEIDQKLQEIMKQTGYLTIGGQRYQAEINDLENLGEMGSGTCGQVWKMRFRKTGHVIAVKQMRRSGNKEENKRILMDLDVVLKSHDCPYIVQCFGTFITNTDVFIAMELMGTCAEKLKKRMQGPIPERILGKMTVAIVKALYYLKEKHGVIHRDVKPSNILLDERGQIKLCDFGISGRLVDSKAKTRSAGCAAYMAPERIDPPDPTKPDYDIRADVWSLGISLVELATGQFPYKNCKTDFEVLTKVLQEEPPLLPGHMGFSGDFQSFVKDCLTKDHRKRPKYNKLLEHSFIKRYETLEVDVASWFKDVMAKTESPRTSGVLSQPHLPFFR
Procedure: To evaluate the inhibitory properties of peptides, ELISA-based assays were performed. In these assays, a fusion protein of glutathione S-transferase (GST) and mitogen-activated protein kinase kinase 7 (MKK7) was coated onto wells of a 96-well plate, while biotinylated-hGadd45β was used in solution. hGadd45β was biotinylated using an EZ Link NHS-LC-biotin kit (Pierce, Rockford, Ill.), according to Tornatore et al. (Tornatore L., et al. (2008). J Mol Biol; 378:97-111).
Firstly, the association between Gadd45β and MKK7 was investigated by ELISA assays as also reported in Tornatore et al. (Tornatore L., et al. (2008). J Mol Biol; 378:97-111). The GST-fused full-length kinase was coated for 16 h at 4° C., at a concentration of 42 nM in buffer A (25 mM Tris pH 7.5, 150 mM NaCl, 1 mM DTT and 1 mM EDTA) into wells of a 96-well microliter plate. Some wells were filled with buffer alone and were used as blanks. After incubation for 16 h at 4° C., the solutions were removed and the wells were filled with 350 μL of a 1% (w/v) solution of NFDM (Non Fat Dry Milk) in PBS (phosphate buffered saline). The plate was incubated for 1 h at 37° C. in the dark. After washing with buffer T-PBS (PBS with 0.004% (v/v) Tween detergent), the wells were filled with 100 μL of biotinylated-hGadd45β at concentrations ranging from 8.4 nM to 168 nM. Each data point was performed in triplicate. Following incubation for 1 hr in the dark at 37° C. the solutions were removed and the wells were again washed with T-PBS. Then 100 μL of a 1:10,000 dilution of horseradish peroxidase-conjugated streptavidin dissolved in buffer was added to each well and the plate incubated for 1 hr at 37° C. in the dark. After removal of the enzyme solution and washing, 100 μL of the chromogenic substrate o-phenylendiamine (0.4 mg/mL in 50 mM sodium phosphate-citrate buffer, containing 0.4 mg/mL of urea in hydrogen peroxide) was added and the colour was allowed to develop in the dark for 5 min. The reaction was stopped by adding 50 μL of 2.5 M H2SO4. The absorbance at 490 nm was measured in all wells and the values were averaged after subtracting the corresponding blanks. Bound protein was then detected as described above. The molar concentration of biotinylated-hGadd45β at which the half-maximal ELISA signal is detected corresponds to the dissociation constant (KD) (Friguet B, Chaffotte A F, Djavadi-Ohaniance L, Goldberg M E. J Immunol Methods. 1985 Mar. 18; 77 (2):305-19). Binding competition assays were performed by coating GST-MKK7 at 42 nM as described, a concentration of biotinylated-hGadd45β of 21 nM (pre-saturation conditions 1:0.5 mol/mol ratio) and, in a first test, using competitors at 21 nM. The binding of biotinylated hGadd45β to GST-MKK7 was analyzed in the presence of increasing amounts of competitor peptide (concentrations ranging from 0.01 nM to 100 nM), and the values obtained with the competitor were expressed as the percentage of the binding detected in the absence of competitor. […] According to the convention adopted in the table “L-Xaa” and “D-Xaa” refer to the L and D forms of amino acid Xaa.
A simplified combinatorial peptide library (Marasco et al. 2008, Curr. Protein Pept. Sci. 9:447-67) was screened for antagonists of the Gadd45β/MKK7 interaction. This library contained a total of 12^4=20,736 different tetrapeptides formed by combinations of the following amino acid residues Gln (Q), Ser (S), Arg (R), Ala (A), Tyr (Y), Pro (P), Met (M), Cys (C), Phe (F), Leu (L), His (H), Asp (D), and was iteratively deconvoluted in four steps by ELISA competition assays using at each step coated MKK7 (42 nM), soluble-biotin-hGadd45β (21 nM) and each of the 12 sub-libraries (42 nM).

[4] = Day 1, read-out: IC50 [H^3] thymidine incorporation assay in KMS11
[5] = Day 3, read-out: IC50 [H^3] thymidine incorporation assay in KMS11
[6] = Day 6, read-out: IC50 [H^3] thymidine incorporation assay in KMS11

IC50 [1, 4] | IC50 [1, 5] | IC50 [1, 6] | Compound | IC50 [1] | further results
> 10 µM | > 10 µM | > 10 µM | N=C(N)NCCC[C@@H](NC(=O)[C@@H](CC(N)=O)NC(=O)[C@@H](Cc1ccc(O)cc1)NC(=O)OCc1ccccc1)C(=O)N[C@H](Cc1ccccc1)C(N)=O [Z-Tyr-Asn-Arg-Phe-NH2] (Cbz-[dY][dN][dR][dF]-NH2) | – | –
> 10 µM | > 10 µM | > 10 µM | NC(=O)C[C@@H](NC(=O)[C@@H](Cc1ccc(O)cc1)NC(=O)OCc1ccccc1)C(=O)N[C@H](Cc1ccccc1)C(N)=O [Z-Tyr-Asn-Phe-NH2] (Cbz-[dY]-[dN]-[dF]-NH2) | – | –
– | – | – | N=C(N)NCCC[C@@H](NC(=O)[C@@H](CCC(=O)O)NC(=O)c1ccccc1)C(=O)Nc1ccccc1 [Compound 10, X1-Glu-Arg-Y1] (Bz-[dE]-[dR]-NHPh) | > 10 µM | –
– | – | – | N=C(N)NCCC[C@@H](NC(=O)[C@@H](CCC(=O)O)NC(=O)c1ccccc1)C(=O)NCCc1ccccc1 [Compound 12, X1-Glu-Arg-Y3] (Bz-[dE]-[dR]-NHPhenethyl) | > 10 µM | –
> 10 µM | > 10 µM | > 10 µM | CSCC[C@@H](NC(=O)[C@@H](Cc1ccc(O)cc1)NC(=O)OCc1ccccc1)C(=O)N[C@H](CCCNC(=N)N)C(=O)N[C@H](Cc1ccccc1)C(N)=O [Z-Tyr-Met-Arg-Phe-NH2] (Cbz-[dY][dM][dR][dF]-NH2) | – | –
– | – | – | N=C(N)NCCC[C@@H](NC(=O)[C@@H](CCC(=O)O)NC(=O)c1ccc(O)cc1)C(=O)NCc1ccccc1 [Compound 14, X2-Glu-Arg-Y2] | > 10 µM | –
– | – | – | O=C(O)C[C@@H](NC(=O)c1ccc(O)cc1)C(=O)N[C@H](Cc1c[nH]cn1)C(=O)NCc1ccccc1 [Compound 6, X2-Asp-His-Y2] | > 10 µM | IC50 [2]: > 10 µM
– | – | – | O=C(O)C[C@@H](NC(=O)c1ccc(O)cc1)C(=O)N[C@H](Cc1c[nH]cn1)C(=O)Nc1ccccc1 [Compound 5, X2-Asp-His-Y1] | > 10 µM | IC50 [2]: > 10 µM
> 10 µM | > 10 µM | > 10 µM | N=C(N)NCCC[C@@H](NC(=O)[C@@H](CCC(N)=O)NC(=O)[C@@H](Cc1ccc(O)cc1)NC(=O)OCc1ccccc1)C(=O)N[C@H](Cc1ccccc1)C(N)=O [Z-Tyr-Gln-Arg-Phe-NH2] (Cbz-[dY][dQ][dR][dF]-NH2) | – | –
> 10 µM | > 10 µM | > 10 µM | CSCC[C@@H](NC(=O)[C@@H](Cc1ccc(O)cc1)NC(=O)OCc1ccccc1)C(=O)N[C@H](Cc1ccccc1)C(N)=O [Z-Tyr-Met-Phe-NH2] (Cbz-[dY]-[dM]-[dF]-NH2) | – | –
– | – | – | N=C(N)NCCC[C@@H](NC(=O)[C@@H](CCC(=O)O)NC(=O)c1ccccc1)C(=O)NCc1ccccc1 [Compound 11, X1-Glu-Arg-Y2] (Bz-[dE]-[dR]-NHBn) | > 10 µM | –
– | – | – | O=C(O)C[C@@H](NC(=O)c1ccccc1)C(=O)N[C@H](Cc1c[nH]cn1)C(=O)Nc1ccccc1 [Compound 2, X1-Asp-His-Y1] (Bz-[dD]-[dH]-NHPh) | > 10 µM | IC50 ([3]; FIG. 3C): > 0.001 µM; IC50 [2]: > 10 µM
> 10 µM | > 10 µM | > 10 µM | NC(=O)CC[C@@H](NC(=O)[C@@H](Cc1ccc(O)cc1)NC(=O)OCc1ccccc1)C(=O)N[C@H](Cc1ccccc1)C(N)=O [Z-Tyr-Gln-Phe-NH2] (Cbz-[dY]-[dQ]-[dF]-NH2) | – | –
– | > 10 µM | > 10 µM | NC(=O)[C@@H](Cc1ccccc1)NC(=O)[C@@H](CC(=O)O)NC(=O)[C@@H](Cc1ccc(O)cc1)NC(=O)OCc1ccccc1 [Compound 8, Z-Tyr-Asp-Phe-NH2] (Cbz-[dY]-[dD]-[dF]-NH2) | – | IC50 ([3]; peptides 0.01-10 nM): 0.000162 µM
– | – | – | O=C(O)C[C@@H](NC(=O)c1ccccc1)C(=O)N[C@H](Cc1c[nH]cn1)C(=O)NCCc1ccccc1 [Compound 4, X1-Asp-His-Y3] (Bz-[dD]-[dH]-NHPhenethyl) | > 10 µM | IC50 ([3]; peptides 0.01-10 nM): 0.0005 µM; IC50 [2]: > 10 µM
– | – | – | O=C(O)C[C@@H](NC(=O)c1ccccc1)C(=O)N[C@H](Cc1c[nH]cn1)C(=O)NCc1ccccc1 [Compound 3, X1-Asp-His-Y2] (Bz-[dD]-[dH]-NHBn) | > 10 µM | IC50 ([3]; FIG. 3C): > 0.001 µM; IC50 [2]: > 10 µM
> 10 µM | > 10 µM | > 10 µM | CC(C)C[C@@H](NC(=O)[C@@H](Cc1ccc(O)cc1)NC(=O)OCc1ccccc1)C(=O)N[C@H](Cc1ccccc1)C(N)=O [Z-Tyr-Leu-Phe-NH2] (Cbz-[dY]-[dL]-[dF]-NH2) | – | –
– | – | – | N=C(N)NCCC[C@@H](NC(=O)[C@@H](CCC(=O)O)NC(=O)c1ccc(O)cc1)C(=O)Nc1ccccc1 [Compound 13, X2-Glu-Arg-Y1] | > 10 µM | –
> 10 µM | > 10 µM | > 10 µM | CC(C)C[C@@H](NC(=O)[C@@H](Cc1ccc(O)cc1)NC(=O)OCc1ccccc1)C(=O)N[C@H](CCCNC(=N)N)C(=O)N[C@H](Cc1ccccc1)C(N)=O [Z-Tyr-Leu-Arg-Phe-NH2] (Cbz-[dY][dL][dR][dF]-NH2) | – | –

— patent publication US8993717B2, “Gadd45beta targeting agents” (Imperial Innovations Limited, priority 2009, dated 2015)
